The values below come from article PMC8707786 (Pharmaceutics, 2021).

Like-named read-outs stand apart in the source and are kept apart here.

The nature of series [1]: Pharmacokinetics of sorafenib and sorafenib N-oxide in rat plasma (HPLC-UV), sorafenib alone or with morphine. The settings on record: for increase of AUC0–t in the presence of morphine / increase of Cmax in the presence of morphine: ISOR+MF vs. IISOR, rats; for ratio sorafenib N-oxide/sorafenib, Cmax: metabolite/parent ratio; for AUC0–t / AUC0–∞ / Cmax: rat plasma; for Cmax: mean ± SD.
Experimental: (§1) The supernatant volume for each time point used to prepare the HPLC sample was 20 μL.
(§2) An ammonium acetate 0.1 M, pH = 3.4 (eluent A) and acetonitrile (eluent B) (1:1, v/v) solution were used as a mobile phase. The flow rate was set at 1.0 mL/min. […] Lapatinib was used as the internal standard (IS).

A short description of another series: in vivo. The settings on record: male, Wistar, rat, po, 100 mg/kg, Cl/F (apparent plasma clearance).
The conditions of series [2]: rat, in vivo.
Experimental: as §1, §2
The mark [3] stands for this setting: geometric mean ratio of the metabolite/parent ratio.
The mark [4] stands for this setting: geometric mean ratio, sorafenib + morphine vs. sorafenib alone.
The mark [5] stands for this setting: sorafenib 100 mg/kg p.o. + morphine 5 mg/kg i.p. (ISOR+MF, n = 8).
The mark [6] stands for this setting: sorafenib 100 mg/kg p.o. alone (IISOR, n = 8).

Experimental for in vivo: as §1, §2

For the molecule `CNC(=O)c1cc(Oc2ccc(NC(=O)Nc3ccc(Cl)c(C(F)(F)F)c3)cc2)cc[n+]1[O-]` [sorafenib N-oxide], in series [1], the “increase of AUC0–t in the presence of morphine” value is recorded as 61.9% and the “increase of Cmax in the presence of morphine” value was 145.5%. Besides, in series [1] ('higher by'), the “increase of AUC0–t in the presence of morphine” value is on record as 0.6 fold and the “increase of Cmax in the presence of morphine” value is 1.5 fold. Also, in series [1] (setting [3]), the “ratio sorafenib N-oxide/sorafenib, AUC0–t: Gmean ratio (90% CI) ISOR+MF vs. IISOR” value is reported as 1.07 (0.70; 1.65); the “ratio sorafenib N-oxide/sorafenib, AUC0–∞: Gmean ratio (90% CI) ISOR+MF vs. IISOR” value was 0.89 (0.53; 1.51); the “ratio sorafenib N-oxide/sorafenib, Cmax: Gmean ratio (90% CI) ISOR+MF vs. IISOR” value is recorded as 1.03 (0.67; 1.61). Further, in series [1] (setting [4]), the “AUC0–t Gmean ratio (90% CI) ISOR+MF vs. IISOR” value was 1.64 (1.14; 2.36), the “AUC0–∞ Gmean ratio (90% CI) ISOR+MF vs. IISOR” value is reported as 1.41 (0.95; 2.08), the “Cmax Gmean ratio (90% CI) ISOR+MF vs. IISOR” value is on record as 2.15 (1.50; 3.08) and the “kel Gmean ratio (90% CI) ISOR+MF vs. IISOR” value is recorded as 0.80 (0.47; 1.36). For the same molecule, in series [1] (setting [4]), the “t1/2 Gmean ratio (90% CI) ISOR+MF vs. IISOR” value is listed as 1.25 (0.73; 2.13) and the “tmax Gmean ratio (90% CI) ISOR+MF vs. IISOR” value is recorded as 0.76 (0.41; 1.39). For the same molecule, the “ratio sorafenib N-oxide/sorafenib, Cmax” value in series [1] (sorafenib + morphine (ISOR+MF, n = 8)) was 0.09 ± 0.07 (76.2) µg/mL. Further, in series [1] (sorafenib alone (IISOR, n = 8)), the “ratio sorafenib N-oxide/sorafenib, Cmax” value is recorded as 0.07 ± 0.02 (26.8) µg/mL. Besides, in series [1] (setting [5]), the “AUC0–t” value is recorded as 6.64 ± 2.44 (36.8) µg × h/mL, the “AUC0–∞” value was 9.39 ± 2.97 (31.6) µg × h/mL, the Cmax is given as 0.27 ± 0.16 (57.5) µg/mL and the “kel (elimination rate constant)” value is 0.023 ± 0.012 (51.6) h^−1. In series [1] (setting [5]), the “t1/2 (elimination phase)” value is reported as 39.30 ± 22.54 (57.4) h and the tmax is recorded as 14.50 ± 11.40 (78.6) h. For the same molecule, in series [1] (setting [6]), the “AUC0–t” value is reported as 4.10 ± 1.56 (38.1) µg × h/mL, the “AUC0–∞” value was 8.61 ± 2.19 (25.4) µg × h/mL, the Cmax is given as 0.11 ± 0.02 (21.8) µg/mL and the “kel (elimination rate constant)” value is reported as 0.016 ± 0.010 (60.9) h^−1. Further, in series [1] (setting [6]), the “t1/2 (elimination phase)” value is 53.31 ± 25.23 (47.3) h and the tmax is 16.38 ± 8.21 (50.1) h.
As for `CNC(=O)c1cc(Oc2ccc(NC(=O)Nc3ccc(Cl)c(C(F)(F)F)c3)cc2)ccn1` [sorafenib], the CL/F in “in vivo” was 0.8 L/h/kg. Further, in series [2] (male, Wistar), the “lower clearance in the ISOR+MF group” value is on record as 0.4 fold. The “AUC0–∞” value in series [2] (male, Wistar, po, 100 mg/kg) worked out at 67.05 ± 16.70 µg·h/mL. Moreover, in series [2], the “AUC0–t/(D/kg)” value is 1.25 ± 0.32 µg·kg·h/mL/mg and the “AUC0–∞/(D/kg)” value came to 1.33 ± 0.33 µg·kg·h/mL/mg. In addition, in series [2] (po, 100 mg/kg), the adverse effects entry is reported as “did not cause any adverse effects”.
